The values below come from ChEMBL document CHEMBL1201862, “PubChem BioAssay data set” (2004).

The target in one experiment is Kallikrein-7 (Homo sapiens, UniProt P49862). The experiment can be described thus: Fluorescence Intensity-based biochemical primary high throughput dose response assay to identify activators of kallikrein-7 (K7) zymogen.
A short description of experiment [1]: miR-122 activators in hepatoma reporter cells, dose response, cell-based, Huh7 psiCHECK-miR122, Renilla luciferase, cherry-picked (AID 651956).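 Further: huh7 hepatoma cells stably carrying a psiCHECK-2 miR-122 sensor plasmid; renilla luciferase signal reporting endogenous miR-122 activity after 48 h compound exposure.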 It is filed as functional.
Experiment [2] has as its target T1, Corticotropin-releasing factor receptor 2/Corticotropin-releasing factor-binding protein (Homo sapiens, UniProt P24387+Q13324).
T1 sequence (Q13324 whole entry): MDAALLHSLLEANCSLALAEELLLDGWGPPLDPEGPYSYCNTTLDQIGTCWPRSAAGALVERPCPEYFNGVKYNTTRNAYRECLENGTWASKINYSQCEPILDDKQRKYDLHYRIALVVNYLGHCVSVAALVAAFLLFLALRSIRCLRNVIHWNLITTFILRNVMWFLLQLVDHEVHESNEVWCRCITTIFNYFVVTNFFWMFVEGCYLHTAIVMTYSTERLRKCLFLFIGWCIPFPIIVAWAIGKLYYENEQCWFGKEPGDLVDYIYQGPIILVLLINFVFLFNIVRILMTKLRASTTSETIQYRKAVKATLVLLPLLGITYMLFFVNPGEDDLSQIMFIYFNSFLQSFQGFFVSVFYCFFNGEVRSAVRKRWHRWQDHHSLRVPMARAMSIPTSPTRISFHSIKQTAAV
T1 sequence (P24387 whole entry): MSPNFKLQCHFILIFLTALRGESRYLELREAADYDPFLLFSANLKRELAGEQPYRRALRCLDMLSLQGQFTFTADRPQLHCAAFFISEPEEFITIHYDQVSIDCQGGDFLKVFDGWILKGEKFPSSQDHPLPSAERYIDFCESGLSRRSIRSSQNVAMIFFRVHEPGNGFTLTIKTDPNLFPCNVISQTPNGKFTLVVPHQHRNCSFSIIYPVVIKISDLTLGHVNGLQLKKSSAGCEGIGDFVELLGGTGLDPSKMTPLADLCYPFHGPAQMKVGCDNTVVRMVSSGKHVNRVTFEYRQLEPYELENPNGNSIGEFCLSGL
In words: activators of CRF receptor 2 with binding protein – uHTS hits, confirmation (AID 602473). It is filed as functional. As to conditions: read-out: EC50_Mean.

Experiment [3] has as its target T1, Corticotropin-releasing factor receptor 2/Corticotropin-releasing factor-binding protein. The experiment can be described thus: Dose Response confirmation of uHTS hits for small molecule antagonists of the CRF-binding protein and CRF-R2 receptor complex. The experiment is classed as functional. The note with it: read-out: IC50_Mean.
Experiment [4] deals with T2, 1-phosphatidylinositol 4,5-bisphosphate phosphodiesterase beta-3 (Homo sapiens, UniProt Q01970).
T2 sequence (Q01970 whole entry): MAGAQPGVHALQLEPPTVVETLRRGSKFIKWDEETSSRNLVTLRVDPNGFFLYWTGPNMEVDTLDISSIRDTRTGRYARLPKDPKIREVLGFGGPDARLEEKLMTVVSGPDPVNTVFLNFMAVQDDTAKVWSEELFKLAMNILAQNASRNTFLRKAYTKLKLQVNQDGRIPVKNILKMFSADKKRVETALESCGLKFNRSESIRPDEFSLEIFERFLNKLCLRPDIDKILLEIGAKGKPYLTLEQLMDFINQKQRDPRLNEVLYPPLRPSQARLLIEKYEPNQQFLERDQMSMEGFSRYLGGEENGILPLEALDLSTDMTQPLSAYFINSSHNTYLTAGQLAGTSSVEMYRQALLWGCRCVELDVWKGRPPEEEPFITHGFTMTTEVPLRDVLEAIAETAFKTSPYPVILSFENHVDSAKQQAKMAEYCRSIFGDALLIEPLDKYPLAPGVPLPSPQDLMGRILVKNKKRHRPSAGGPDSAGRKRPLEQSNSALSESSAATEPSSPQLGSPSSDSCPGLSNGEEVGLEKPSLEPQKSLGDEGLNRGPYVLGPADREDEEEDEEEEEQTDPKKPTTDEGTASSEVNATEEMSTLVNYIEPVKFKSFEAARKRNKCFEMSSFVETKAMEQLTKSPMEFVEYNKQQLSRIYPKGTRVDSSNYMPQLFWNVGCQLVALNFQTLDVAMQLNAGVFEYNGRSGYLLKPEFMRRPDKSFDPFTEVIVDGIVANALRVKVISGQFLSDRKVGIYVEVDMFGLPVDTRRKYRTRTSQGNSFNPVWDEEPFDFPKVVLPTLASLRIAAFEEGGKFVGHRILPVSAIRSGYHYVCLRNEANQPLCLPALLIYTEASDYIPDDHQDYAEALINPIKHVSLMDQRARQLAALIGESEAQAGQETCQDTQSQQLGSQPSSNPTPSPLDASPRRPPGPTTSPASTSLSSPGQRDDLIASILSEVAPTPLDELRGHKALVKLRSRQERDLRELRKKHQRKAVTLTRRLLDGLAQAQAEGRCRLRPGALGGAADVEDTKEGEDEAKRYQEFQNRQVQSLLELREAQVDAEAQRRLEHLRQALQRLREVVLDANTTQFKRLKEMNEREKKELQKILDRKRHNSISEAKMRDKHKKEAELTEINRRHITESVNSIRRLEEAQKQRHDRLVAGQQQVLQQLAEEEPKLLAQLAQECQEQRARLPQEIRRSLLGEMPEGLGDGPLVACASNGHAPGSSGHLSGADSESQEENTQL
In words: Fluorescence-based biochemical high throughput dose response assay to identify inhibitors of phospholipase C isozymes (PLC-B3).

Experiment [5] concerns the target Voltage-dependent T-type calcium channel subunit alpha-1H (Homo sapiens, UniProt O95180). It is filed as functional.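 Further: channel activity triggered by adding a high calcium stimulation buffer.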
Experiment [6] addresses T3, 1-phosphatidylinositol 4,5-bisphosphate phosphodiesterase gamma-1 (Homo sapiens, UniProt P19174).
T3 sequence (P19174 whole entry): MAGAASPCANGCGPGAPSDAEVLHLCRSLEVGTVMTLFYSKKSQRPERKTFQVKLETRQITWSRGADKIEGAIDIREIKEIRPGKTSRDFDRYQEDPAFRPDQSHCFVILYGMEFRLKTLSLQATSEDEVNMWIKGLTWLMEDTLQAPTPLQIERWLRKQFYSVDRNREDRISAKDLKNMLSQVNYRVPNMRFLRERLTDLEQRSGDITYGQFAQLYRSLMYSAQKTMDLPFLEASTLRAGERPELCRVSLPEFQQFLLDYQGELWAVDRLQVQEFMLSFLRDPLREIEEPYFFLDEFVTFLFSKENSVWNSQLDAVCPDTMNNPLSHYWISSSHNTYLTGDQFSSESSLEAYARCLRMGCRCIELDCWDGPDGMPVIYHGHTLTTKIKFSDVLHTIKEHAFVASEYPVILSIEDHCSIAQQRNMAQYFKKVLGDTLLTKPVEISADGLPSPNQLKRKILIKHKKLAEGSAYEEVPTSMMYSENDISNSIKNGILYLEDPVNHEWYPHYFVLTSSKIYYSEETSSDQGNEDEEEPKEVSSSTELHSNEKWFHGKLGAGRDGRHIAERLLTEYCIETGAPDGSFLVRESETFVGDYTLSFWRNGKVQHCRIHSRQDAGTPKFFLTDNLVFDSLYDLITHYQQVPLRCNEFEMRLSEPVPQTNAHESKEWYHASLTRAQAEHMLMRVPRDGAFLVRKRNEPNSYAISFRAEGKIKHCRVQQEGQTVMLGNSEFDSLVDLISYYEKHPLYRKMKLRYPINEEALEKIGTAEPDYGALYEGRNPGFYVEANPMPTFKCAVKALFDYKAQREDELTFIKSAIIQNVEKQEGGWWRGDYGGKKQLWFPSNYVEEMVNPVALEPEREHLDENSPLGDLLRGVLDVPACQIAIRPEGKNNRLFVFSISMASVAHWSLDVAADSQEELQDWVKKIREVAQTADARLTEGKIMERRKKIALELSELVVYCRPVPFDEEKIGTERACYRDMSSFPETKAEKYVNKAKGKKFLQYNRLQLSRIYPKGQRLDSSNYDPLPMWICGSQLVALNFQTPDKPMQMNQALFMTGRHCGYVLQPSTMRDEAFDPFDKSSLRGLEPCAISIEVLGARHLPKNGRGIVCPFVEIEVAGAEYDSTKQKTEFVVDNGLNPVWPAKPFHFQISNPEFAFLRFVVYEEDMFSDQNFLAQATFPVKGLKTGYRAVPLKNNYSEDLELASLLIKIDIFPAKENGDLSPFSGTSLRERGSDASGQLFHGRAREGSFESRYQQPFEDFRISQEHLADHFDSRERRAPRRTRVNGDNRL
In words: Counterscreen for inhibitors of phospholipase C isozymes (PLC-B3): Fluorescence-based biochemical high throughput dose response assay to identify inhibitors of phospholipase C isozymes (PLC-gamma1). A general note: A counterscreen serves to expose hits that act by an unwanted route or on another target.

The nature of experiment [7]: HEK293T cytotoxicity, dose response, cytotoxicity control for miR-122 modulator project, cell-based, inhibitor set, cherry-pick, set 2 (AID 720697). The experiment is classed as functional.
Experiment [8] can be described thus: Counterscreen for inhibitors of Trypanosoma brucei methionyl tRNA synthetase (MetRS): Luminescence-based cell-based high throughput dose response assay to identify compounds that are cytotoxic to Jurkat human T lymphocyte cells. The experiment is classed as functional.
Experiment [9] is described as follows: HeLa cell cytotoxicity, dose response, cytotoxicity control for MgcRacGAP inhibitor project (AID 624300). It is filed as functional.
Experiment [10] addresses Induced myeloid leukemia cell differentiation protein Mcl-1 (Homo sapiens, UniProt Q07820). The experiment is classed as functional.
Experiment [11] addresses T4, DNA repair and recombination protein RAD54-like (Homo sapiens, UniProt Q92698).
T4 sequence (Q92698 whole entry): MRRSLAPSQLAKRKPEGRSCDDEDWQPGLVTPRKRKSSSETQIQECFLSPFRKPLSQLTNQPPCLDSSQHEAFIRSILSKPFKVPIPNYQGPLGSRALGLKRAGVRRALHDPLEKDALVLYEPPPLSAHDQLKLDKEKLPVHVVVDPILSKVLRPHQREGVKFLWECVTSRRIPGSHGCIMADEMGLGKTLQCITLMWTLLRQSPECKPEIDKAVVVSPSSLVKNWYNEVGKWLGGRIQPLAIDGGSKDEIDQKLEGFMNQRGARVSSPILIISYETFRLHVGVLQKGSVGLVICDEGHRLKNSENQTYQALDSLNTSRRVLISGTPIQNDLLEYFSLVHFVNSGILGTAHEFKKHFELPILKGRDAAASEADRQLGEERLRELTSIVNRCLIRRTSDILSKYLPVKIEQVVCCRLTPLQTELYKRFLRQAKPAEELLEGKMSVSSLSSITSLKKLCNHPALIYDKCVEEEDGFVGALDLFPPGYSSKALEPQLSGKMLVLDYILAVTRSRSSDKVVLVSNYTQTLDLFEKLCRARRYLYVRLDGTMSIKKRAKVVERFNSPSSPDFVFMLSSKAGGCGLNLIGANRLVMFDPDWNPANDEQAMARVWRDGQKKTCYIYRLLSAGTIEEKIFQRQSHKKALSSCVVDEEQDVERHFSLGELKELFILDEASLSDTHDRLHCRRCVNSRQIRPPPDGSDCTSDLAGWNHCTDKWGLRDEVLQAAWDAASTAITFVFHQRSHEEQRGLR
In words: inhibitors of human RAD54 branch migration, confirmation, biochemical, fluorescence, cherry-picked samples, dose series (AID 651657). It is filed as functional.

A further experiment concerns the target T5, Caspase-6 (Homo sapiens, UniProt P55212).
T5 sequence (P55212 whole entry): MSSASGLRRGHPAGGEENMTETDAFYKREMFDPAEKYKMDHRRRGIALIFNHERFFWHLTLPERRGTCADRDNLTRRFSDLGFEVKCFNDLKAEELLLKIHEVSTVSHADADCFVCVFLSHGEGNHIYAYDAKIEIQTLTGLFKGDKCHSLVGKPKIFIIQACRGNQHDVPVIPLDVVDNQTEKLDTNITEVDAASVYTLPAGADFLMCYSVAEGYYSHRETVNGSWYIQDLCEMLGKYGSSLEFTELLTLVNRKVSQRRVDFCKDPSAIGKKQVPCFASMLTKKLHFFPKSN
In words: human caspase-6 inhibitors, dose response, biochemical, VEID-R110 fluorescence, cherry-pick (AID 720632).

Active and inactive are the calls of the source.

Sequence of Kallikrein-7 (P49862 whole entry): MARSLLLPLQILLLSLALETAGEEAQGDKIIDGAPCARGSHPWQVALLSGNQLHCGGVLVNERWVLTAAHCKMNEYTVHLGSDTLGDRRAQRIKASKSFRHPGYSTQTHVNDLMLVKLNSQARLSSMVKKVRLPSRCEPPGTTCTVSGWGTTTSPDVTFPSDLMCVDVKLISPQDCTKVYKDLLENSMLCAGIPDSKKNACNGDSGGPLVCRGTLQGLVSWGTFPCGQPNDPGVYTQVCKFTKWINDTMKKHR
Sequence of Induced myeloid leukemia cell differentiation protein Mcl-1 (Q07820 whole entry): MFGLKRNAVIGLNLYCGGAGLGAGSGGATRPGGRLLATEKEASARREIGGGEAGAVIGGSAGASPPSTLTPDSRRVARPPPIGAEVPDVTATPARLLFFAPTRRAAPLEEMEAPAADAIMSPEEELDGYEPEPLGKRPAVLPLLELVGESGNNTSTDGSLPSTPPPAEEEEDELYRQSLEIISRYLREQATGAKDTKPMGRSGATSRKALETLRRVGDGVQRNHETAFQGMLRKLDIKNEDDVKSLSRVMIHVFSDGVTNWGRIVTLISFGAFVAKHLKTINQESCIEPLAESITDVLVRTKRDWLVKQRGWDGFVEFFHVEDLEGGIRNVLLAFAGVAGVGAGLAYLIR
Sequence of Voltage-dependent T-type calcium channel subunit alpha-1H (O95180 whole entry): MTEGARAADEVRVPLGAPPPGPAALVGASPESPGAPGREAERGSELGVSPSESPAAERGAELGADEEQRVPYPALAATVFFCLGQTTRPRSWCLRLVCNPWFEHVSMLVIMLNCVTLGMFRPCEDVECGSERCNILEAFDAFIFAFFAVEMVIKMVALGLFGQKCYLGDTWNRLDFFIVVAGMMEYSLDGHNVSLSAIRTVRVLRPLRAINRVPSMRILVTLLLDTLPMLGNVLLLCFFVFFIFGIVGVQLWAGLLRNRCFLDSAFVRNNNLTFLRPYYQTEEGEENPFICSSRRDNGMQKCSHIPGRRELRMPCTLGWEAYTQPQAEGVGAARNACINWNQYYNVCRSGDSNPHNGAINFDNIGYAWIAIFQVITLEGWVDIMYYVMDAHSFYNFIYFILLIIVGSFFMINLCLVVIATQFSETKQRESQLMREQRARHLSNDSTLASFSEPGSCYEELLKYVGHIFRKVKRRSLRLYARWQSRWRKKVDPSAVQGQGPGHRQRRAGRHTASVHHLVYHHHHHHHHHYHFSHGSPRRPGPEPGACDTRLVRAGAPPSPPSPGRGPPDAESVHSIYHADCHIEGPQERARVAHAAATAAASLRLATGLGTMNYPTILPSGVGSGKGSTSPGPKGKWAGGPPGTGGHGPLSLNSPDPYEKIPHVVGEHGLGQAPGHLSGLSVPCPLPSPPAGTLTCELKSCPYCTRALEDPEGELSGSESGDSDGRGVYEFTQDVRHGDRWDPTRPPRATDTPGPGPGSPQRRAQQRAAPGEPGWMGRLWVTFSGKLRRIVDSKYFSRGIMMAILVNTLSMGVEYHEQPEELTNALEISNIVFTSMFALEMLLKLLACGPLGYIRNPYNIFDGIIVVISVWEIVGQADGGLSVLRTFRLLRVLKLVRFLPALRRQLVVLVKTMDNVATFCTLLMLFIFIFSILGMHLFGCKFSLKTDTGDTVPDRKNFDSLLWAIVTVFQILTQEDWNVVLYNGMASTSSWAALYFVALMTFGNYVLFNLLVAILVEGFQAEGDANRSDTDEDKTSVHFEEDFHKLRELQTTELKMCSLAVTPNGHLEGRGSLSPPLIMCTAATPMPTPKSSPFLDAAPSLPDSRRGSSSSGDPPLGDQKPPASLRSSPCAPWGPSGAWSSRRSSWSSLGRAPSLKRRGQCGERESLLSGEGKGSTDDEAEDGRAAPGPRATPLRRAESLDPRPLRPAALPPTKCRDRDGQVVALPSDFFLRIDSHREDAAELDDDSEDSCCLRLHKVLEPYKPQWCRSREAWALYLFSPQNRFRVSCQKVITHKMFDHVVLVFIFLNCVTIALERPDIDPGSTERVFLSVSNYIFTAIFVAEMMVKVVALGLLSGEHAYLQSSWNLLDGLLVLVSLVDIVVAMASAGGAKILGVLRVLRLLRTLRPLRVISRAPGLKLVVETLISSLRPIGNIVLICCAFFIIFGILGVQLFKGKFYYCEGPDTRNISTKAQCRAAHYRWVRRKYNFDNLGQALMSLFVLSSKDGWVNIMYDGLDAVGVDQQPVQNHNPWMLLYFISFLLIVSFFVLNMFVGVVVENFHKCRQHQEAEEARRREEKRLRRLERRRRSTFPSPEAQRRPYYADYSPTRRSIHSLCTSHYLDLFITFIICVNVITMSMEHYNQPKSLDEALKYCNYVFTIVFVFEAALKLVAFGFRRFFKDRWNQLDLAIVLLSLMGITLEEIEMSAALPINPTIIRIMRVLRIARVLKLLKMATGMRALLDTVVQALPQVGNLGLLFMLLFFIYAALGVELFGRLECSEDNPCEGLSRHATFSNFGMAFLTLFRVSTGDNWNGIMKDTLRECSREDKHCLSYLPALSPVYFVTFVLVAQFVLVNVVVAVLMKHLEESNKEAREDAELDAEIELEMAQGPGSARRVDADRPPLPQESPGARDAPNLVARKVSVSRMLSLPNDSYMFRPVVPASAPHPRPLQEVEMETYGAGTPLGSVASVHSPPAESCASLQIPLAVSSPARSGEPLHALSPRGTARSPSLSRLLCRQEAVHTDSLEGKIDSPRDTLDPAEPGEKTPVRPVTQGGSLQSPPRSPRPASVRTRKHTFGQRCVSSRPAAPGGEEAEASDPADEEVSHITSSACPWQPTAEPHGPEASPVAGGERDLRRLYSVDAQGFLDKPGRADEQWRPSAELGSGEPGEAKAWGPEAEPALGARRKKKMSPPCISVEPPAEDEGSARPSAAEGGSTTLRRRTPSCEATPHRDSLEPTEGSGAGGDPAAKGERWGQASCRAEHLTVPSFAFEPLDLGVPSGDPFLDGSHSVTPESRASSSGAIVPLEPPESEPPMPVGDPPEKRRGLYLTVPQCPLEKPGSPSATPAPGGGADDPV

Consider `COc1ccccc1CC(=O)Nc1ccc(NC(=O)c2cccs2)cc1`, for which the EC50 at Kallikrein-7 is 7.57 µM (active).

On to `C/C=C/c1ccc2c(c1)O[C@H](CN(C)C(=O)Nc1cccc(F)c1)[C@H](C)CN([C@@H](C)CO)S2(=O)=O`, for which the AC50 in [1] was 31.9 µM (active).

Take `O=S(=O)(c1ccccc1)c1cnn(-c2ccccc2)c1-c1ccc(F)cc1`: the EC50 in experiment [2] is > 53 µM (inactive); in experiment [5] it was 5.16 µM (active). In addition, the IC50 in experiment [3] was > 47.1 µM (inactive); in experiment [4], > 123 µM (inactive); in experiment [6], > 123 µM (inactive).

As for `CC(=O)Nc1ccc(-c2nc3ccc(NC(C)=O)cc3o2)cc1`, the EC50 on Kallikrein-7 is > 69.5 µM (inactive).

Take `CC(C)c1ccc(CNC(=O)CSCC(=O)Nc2ccc3ccccc3c2)cc1`: the concentration at half-maximal activity (AC50) in [7] was 4.3 µM (active).

On to `COc1ccc(CC(=O)OCC(=O)Nc2ccc(Br)cc2)cc1`, for which the IC50 in [8] is 83.3 µM (inactive).

Turning to `N#C/C(=C/c1ccc(N2CCOCC2)o1)c1ccc(Cl)cc1`, the CC50 in experiment [9] is 100 µM (active).

On to `Cc1ccc(-c2cc(C(=O)OCC(=O)N(C)C3CCS(=O)(=O)C3)c3ccccc3n2)o1` (stereo not drawn), for which, in [10], the IC50 is 5.12 µM (active). In addition, the EC50 on Kallikrein-7 was 6.97 µM (active).

On to `Cc1nccc2c1[nH]c1ccccc12` [HARMAN], for which the concentration at half-maximal activity (AC50) in experiment [11] is 58.4 µM (active).

For `COc1ccc(CCn2c(=N)c(C(=O)NCCN3CCOCC3)cc3c(=O)n4cccc(C)c4nc32)cc1OC`, the concentration at half-maximal activity (AC50) in experiment [11] is 6.24 µM (active).

Regarding `CCNC(=O)C[C@H]1CC[C@H]2[C@@H](COc3ccc(NC(=O)c4ccc5c(c4)OCO5)cc3C(=O)N2C)O1`, the IC50 in experiment [4] was 45.1 µM (inactive); in experiment [6], 47.8 µM (inactive).

With `O=C(CSc1ccsc1[N+](=O)[O-])NCc1ccco1`, the concentration at half-maximal activity (AC50) at Caspase-6 was 9.2 µM (active).

The term AC50 denotes the concentration giving half of the maximal activity seen. By CC50 is commonly meant the concentration at which the toxic effect on the cells reaches its halfway point.
